The source of these data is patent US9688659B2, “Deuterated compounds for treating hematologic malignancies, and compositions and methods thereof” (NeuForm Pharmaceuticals, Inc., priority 2015, dated 2017).

SMILES strings stand for the structures.

The target in data set [1] is T1, IDH2 R140Q (Homo sapiens, UniProt P48735, R140Q).
T1 sequence (P48735 40-452 R140Q): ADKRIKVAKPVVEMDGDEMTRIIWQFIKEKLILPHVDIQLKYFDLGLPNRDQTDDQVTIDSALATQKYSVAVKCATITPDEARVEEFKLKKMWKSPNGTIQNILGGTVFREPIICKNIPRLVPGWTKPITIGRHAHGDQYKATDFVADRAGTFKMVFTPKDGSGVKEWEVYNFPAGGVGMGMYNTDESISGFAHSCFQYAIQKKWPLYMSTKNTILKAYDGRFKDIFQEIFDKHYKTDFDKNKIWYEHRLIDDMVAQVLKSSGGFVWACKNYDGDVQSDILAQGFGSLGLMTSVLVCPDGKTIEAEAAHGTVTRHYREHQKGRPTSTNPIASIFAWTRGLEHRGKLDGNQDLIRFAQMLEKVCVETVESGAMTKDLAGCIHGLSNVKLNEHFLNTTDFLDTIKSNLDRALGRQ
Briefly: IC50 measurement against IDH2 R140Q (diaphorase/resazurin detection). Type of data set: biochemical. How it is done: Compounds were tested in 10-dose IC50 mode with 3-fold serial dilution at a starting concentration of 10 μM. Substrate and co-factor were 8000 μM α-Ketoglutarate and 15 μM NADPH (reduced form of nicotinamide adenine dinucleotide phosphate). The reaction was carried out by mixing compound solutions with enzyme (IDH2 R140Q) and pre-incubated for 60 minutes. Then a four-fold substrate mixture was delivered to initiate the reaction. The solutions were incubated for 45 minutes at room temperature. Detection was performed using diaphorase and resazurin and measured in Envision (Perkin-Elmer). (Ex/Em=535/590 nm).

Data set [2] in a line: In vivo pharmacokinetic study on cynomolgus monkeys, intravenous. Conditions: for AUC Differentiation (%): D8-enasidenib vs enasidenib; for AUC: cynomolgus monkey, plasma, iv, 1 mg/kg. How it is done: Test compounds were dissolved to yield a final concentration at 0.2 mg/mL. The study conducted formulation analysis by HPLC. The four animals assigned to the study had body weights within ±20% of the mean body weight. The study was conducted in a cross-over matter with four phases to minimize individual difference. The dose level was 1 mg/Kg and the drug was administrated through intravenous (IV) route.
Blood samples (approximately 1.2 mL/sample) were collected from the […] vein at appropriate time points. Samples were placed in tubes containing sodium heparin and stored on ice until centrifuged. Blood samples were collected pre-dose and post-dose at post-dose 2 minutes, 5 minutes, 15 minutes, 30 minutes, 1 hour, 2 hours, 3 hours, 4 hours, 6 hours, 8 hours and 24 hours. The blood samples were centrifuged at approximately 8,000 rpm for 6 minutes at 2-8° C. Plasma samples were then collected and stored frozen at approximately −80° C. until analysis. The bioanalytical work was performed using a LC-MS/MS system.

The nature of data set [3]: Drug metabolism study with rat and human liver microsomes fortified with NADPH. Conditions: 10 μM, 1 mg/mL protein, 37° C., 60 minutes. Type of data set: in vitro ADME. How it is done: This study was carried out to evaluate drug metabolism of the test compounds by rat and human microsomes. Test compounds were incubated with liver microsomes of rat (BioreclamationIVT, Lot# NNK) and human (BioreclamationIVT, Lot# HPG) at 37° C. for 60 minutes. The substrate compound concentration was at 10 μM and final protein concentration in incubation mixtures was 1 mg/mL. Reaction was stopped by adding three fold acetonitrile to the reaction mixture. The samples were vortexed and centrifuged to precipitate the proteins. The supernatants were transferred to clean tubes for drying under a stream of N2. The dried residues were reconstituted with 30% acetonitrile. Aliquots were injected into an LC/UV/MS system for metabolite ID and profiling. The LC/UV/MS system was Agilent 1100 HPLC (pumps, autosampler and PDA) interfaced to LTQ ion trap mass spectrometer (ThermoFinnigan). HPLC column was Luna C18(2) column, 250×2.0 mm, 5 The HPLC mobile phase gradient system were water and acetonitrile with 0.05% trifluoroacetic acid in both solvents.
The experimental data indicated oxidation (hydroxylation) and de-alkylation were two of major metabolism paths for enasidenib and D8-enasidenib. For oxidation on aromatic ring, the molecular weights of hydroxylation products were the original ones plus an oxygen (+16). The C—H bond of enasidenib is replaced by C—OH. For oxidation on side chains, the molecular weights of hydroxylation products are different for enasidenib vs. D8-enasidenib. For enasidenib, the C—H bond is also replaced by C—OH and the difference in molecular weights is 16. However, since D8-enasidenib loses a deuterium due to hydroxylation (C-D is replaced by C—OH), the difference of its molecular weight to the original is 15 (that is +O+H−D=15). (FIG. 2) Thus, the hydroxylation products for aromatic ring and side chain for enasidenib and D8-enasidenib can be identified.
For orientation: Liver microsomes are a subcellular fraction often used to study metabolism.

The mark [4] stands for this setting: Average of four animals, 1 mg/Kg IV, monkey.
Where [5] appears, read: animal MK-101, 1 mg/Kg IV, monkey.
Where [6] appears, read: animal MK-201, 1 mg/Kg IV, monkey.
Where [7] appears, read: animal MK-301, 1 mg/Kg IV, monkey.
[8] abbreviates: animal MK-401, 1 mg/Kg IV, monkey.

`[2H]C([2H])([2H])C(O)(C([2H])([2H])[2H])C([2H])([2H])Nc1nc(Nc2ccnc(C(F)(F)F)c2)nc(-c2cccc(C(F)(F)F)n2)n1` [D8-Enasidenib] came in with an IC50 in data set [1] of 360 nM. Also, the “IC50 difference from that of enasidenib” value in data set [1] is given as at most 10%. For the same molecule, the “AUC Differentiation (%)” value was 62.0% in data set [2] (Average); 15.3% in data set [2] (animal MK-101); 69.1% in data set [2] (animal MK-201); 140% in data set [2] (animal MK-301); 23.5% in data set [2] (animal MK-401). In addition, the exposure (AUC) in data set [2] (setting [4]) came to 7900 ng·h/mL; in data set [2] (setting [5]) it was 8970 ng·h/mL; in data set [2] (setting [6]) it was 5810 ng·h/mL; in data set [2] (setting [7]) it was 10300 ng·h/mL; in data set [2] (setting [8]) it was 6530 ng·h/mL. Besides, in data set [2] (monkey, 1 mg/Kg IV), the “DMPK property over enasidenib (drug exposure AUC and half-life)” value is recorded as “superior DMPK property over enasidenib”. Besides, the “formation of hydroxylation product on aromatic ring compared to enasidenib” value in data set [3] (FIG. 3) is “similar”. Further, in data set [3] (FIG. 3), the “hydroxylation on the side chain compared to enasidenib” value is “greatly reduced”. For the same molecule, the “formation of de-alkylation product compared to enasidenib” value in data set [3] (FIG. 4) was “significantly slowed down”.

As for `CC(C)(O)CNc1nc(Nc2ccnc(C(F)(F)F)c2)nc(-c2cccc(C(F)(F)F)n2)n1` [Enasidenib, enasidenib, reference compound], in data set [1], the IC50 came out at 362 nM. The exposure (AUC) in data set [2] (setting [4]) was determined as 5200 ng·h/mL; in data set [2] (setting [5]), 7780 ng·h/mL; in data set [2] (setting [6]), 3440 ng·h/mL; in data set [2] (setting [7]), 4290 ng·h/mL; in data set [2] (setting [8]), 5290 ng·h/mL.

Broadly, the IC50 is the midpoint of a concentration-inhibition curve. Usually AUC stands for concentration integrated over time.
